Like-named read-outs stand apart in the source and are kept apart here. Positions of bridges follow the written chain, without caps; N, C: chain ends. Non-standard residues stand in square brackets, D forms with d. Residues, ends and D or L forms follow the SMILES beside them. *: point of attachment. FITC = O=C1OC2(c3ccc(O)cc3Oc3cc(O)ccc32)c2ccc(NC(=S)*)cc21; Tyr(3-I) = N[C@@H](Cc1ccc(O)c(I)c1)C(=O)O; Hyp = O=C(O)[C@@H]1C[C@@H](O)CN1; Ahx = NCCCCCC(=O)O
Tests used:
[1] = target: fibrin DD(E) fragment (Homo sapiens, UniProt P02671+P02675+P02679); assay: Fibrin DD(E) fragment affinity of optical contrast agents; format: binding
Protocol: NovaSyn TGR resin (0.20 mmol/g, 100 mg, 20 μmol) was washed with NMP/ether/NMP. The peptide was assembled by the standard solid phase method using the PyBOP/HOBt/DIEA activation. After the coupling of the final amino acid residue, the resin bound peptide was treated with a solution of piperidine in DMF (20% by volume, 2.0 mL) for 10 minutes to remove the Fmoc protecting group. The resin was washed thoroughly with NMP/ether/NMP, and was treated with a solution of fluorascein-5-isothiocyanate (23.4 mg, 60 μmol) and duisopropylethylamine (11.6 mg, 15.7 μL, 90 μmol) in DMF (1.5 mL) for 12 hours. The resin was washed thoroughly (NMP/ether/NMP), and treated with a solution of Tl (TFA)3 (18.7 mg, 34.5 μmol) in DMF (1.5 mL) at 4° C. for three hours. The resin was washed after this treatment, and treated with a cocktail of TFA/TIS/water (95/2.5/2.5, 2.0 mL) for two hours. The crude peptide was precipitated by adding ether to the cleavage cocktail, and purified by preparative HPLC using a Vydac C-18 column. Structures A-N were formed in this manner and their fibrin DD(E) fragment affinities were determined (Table 5).
N-terminal labeling of the peptides with optical probes can modulate the binding affinity of the optical contrast agents. For example, when comparing fluorescein, 4-methoxycoumarin and tetramethylrhodamine derivatives of the peptide (QWECPYGLCWIQ (SEQ ID NO:27); Kd=3 μM) the following Kd's were observed (Table 6): […]

[2] = Stability in rat liver homogenate; format: in vitro ADME; details: 37° C., LC-MS; for half-life: tissue homogenate
Protocol: Stability was assayed using rat liver homogenate, which contains both intra- and extracellular enzymes and represents a particularly harsh chemical environment for peptide bonds. Freshly prepared rat liver homogenate (630 μL) was placed in a glass test tube and incubated at 37° C. in a water bath for 4 minutes. To the rat liver homogenate at 37° C. was added 70 μL of a 1 mM solution of test compound. At time points 0, 5, 15, 30, and 60 minutes, a 100 μL aliquot of the reaction mixture was removed and mixed with 100 μL of methanol in a microfuge tube to quench the reaction. The quenched reaction mixture was centrifuged for 3 minutes at 10,000 rpm to pellet the precipitated protein. The supernatant was analyzed by LC-MS to quantitate the amount of test compound remaining by comparing the area of the single ion MS peak to that of a series of standards. Half life (T1/2) was determined by plotting log percent signal remaining vs. time. The data were fit using an exponential curve fit, wherein T1/2=In2/slope.

[3] = fluorescein-labeled peptides, read-out: Kd (μM) Vs. DD(E)

Chain of fibrin DD(E) fragment (P02671 124-216): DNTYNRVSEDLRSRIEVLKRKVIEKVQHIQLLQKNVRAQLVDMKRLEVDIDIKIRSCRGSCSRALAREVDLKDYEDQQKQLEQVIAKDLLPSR
Chain of fibrin DD(E) fragment (P02675 164-491): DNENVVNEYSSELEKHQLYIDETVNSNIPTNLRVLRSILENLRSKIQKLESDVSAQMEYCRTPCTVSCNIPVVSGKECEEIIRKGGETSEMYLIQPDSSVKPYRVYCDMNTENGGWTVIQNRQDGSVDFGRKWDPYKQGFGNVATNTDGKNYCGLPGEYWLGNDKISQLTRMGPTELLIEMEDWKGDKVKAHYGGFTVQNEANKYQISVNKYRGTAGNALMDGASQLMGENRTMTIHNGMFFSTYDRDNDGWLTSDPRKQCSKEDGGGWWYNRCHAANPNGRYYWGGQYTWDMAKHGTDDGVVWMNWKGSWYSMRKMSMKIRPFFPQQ
Chain of fibrin DD(E) fragment (P02679 114-432): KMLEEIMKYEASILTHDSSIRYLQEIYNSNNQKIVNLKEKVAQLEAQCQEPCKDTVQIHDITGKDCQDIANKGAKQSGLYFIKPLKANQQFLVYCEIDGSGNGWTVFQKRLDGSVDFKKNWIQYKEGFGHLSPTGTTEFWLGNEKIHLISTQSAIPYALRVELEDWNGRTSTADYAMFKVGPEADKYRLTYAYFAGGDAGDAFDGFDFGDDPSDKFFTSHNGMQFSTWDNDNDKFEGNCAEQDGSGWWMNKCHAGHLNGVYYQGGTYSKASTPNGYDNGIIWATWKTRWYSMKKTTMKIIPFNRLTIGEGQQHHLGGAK
Chain of fibrin DD(E) fragment (P02671 36-97): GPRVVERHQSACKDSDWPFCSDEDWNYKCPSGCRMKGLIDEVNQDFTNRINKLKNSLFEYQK
Chain of fibrin DD(E) fragment (P02675 45-152): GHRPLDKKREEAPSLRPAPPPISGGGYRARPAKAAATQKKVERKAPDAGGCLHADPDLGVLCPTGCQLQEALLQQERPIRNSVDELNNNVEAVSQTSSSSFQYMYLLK
Chain of fibrin DD(E) fragment (P02679 27-88): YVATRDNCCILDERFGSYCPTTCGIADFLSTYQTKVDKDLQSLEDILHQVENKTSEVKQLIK

Compound | Kd [1, 3] [µM] | half-life [2] [min] | other results
CC[C@H](C)[C@H](NC(=O)[C@H](Cc1c[nH]cn1)NC(=O)[C@@H]1CSSC[C@H](NC(=O)[C@H](Cc2c[nH]cn2)NC(=O)[C@H](Cc2ccccc2)NC(=O)CNC(=O)CCCCCNC(=S)Nc2ccc3c(c2)C(=O)OC32c3ccc(O)cc3Oc3cc(O)ccc32)C(=O)N2C[C@H](O)C[C@H]2C(=O)N[C@@H](Cc2ccc(O)c(I)c2)C(=O)N[C@@H](CC(=O)O)C(=O)N[C@@H](CC(C)C)C(=O)N1)C(N)=O [C] ({FITC-Ahx}-GFHC[Hyp][Tyr(3-I)]DLCHI-NH2; disulfide 4-9) | 0.097 | – | –
CC(C)C[C@H](NC(=O)[C@@H]1CSSC[C@H](NC(=O)[C@@H]2CCCN2C(=O)[C@H](CC(C)C)NC(=O)C(CNC(=O)C(CN(CCN(CC(=O)O)CC(=O)O)CC(=O)O)N(CC(=O)O)CC(=O)O)NC(=O)C(CN(CCN(CC(=O)O)CC(=O)O)CC(=O)O)N(CC(=O)O)CC(=O)O)C(=O)N[C@@H](CC(=O)O)C(=O)N[C@@H](Cc2ccc(O)cc2)C(=O)N[C@@H](Cc2ccc(O)cc2)C(=O)NCC(=O)N[C@@H]([C@@H](C)O)C(=O)N1)C(=O)N[C@@H](CC(=O)O)C(=O)NCc1ccc(CNC(=O)C(CNC(=O)C(CN(CCN(CC(=O)O)CC(=O)O)CC(=O)O)N(CC(=O)O)CC(=O)O)NC(=O)C(CN(CCN(CC(=O)O)CC(=O)O)CC(=O)O)N(CC(=O)O)CC(=O)O)cc1 (stereo partly shown) [Compound 5] | – | 65 | –
CC[C@H](C)[C@H](NC(=O)[C@H](Cc1c[nH]cn1)NC(=O)[C@@H]1CSSC[C@H](NC(=O)[C@H](Cc2c[nH]cn2)NC(=O)[C@H](Cc2ccccc2)NC(=O)[C@H](Cc2c[nH]c3ccccc23)NC(=S)Nc2ccc3c(c2)C(=O)OC32c3ccc(O)cc3Oc3cc(O)ccc32)C(=O)N2CCC[C@H]2C(=O)N[C@@H](Cc2ccc(O)cc2)C(=O)N[C@@H](CC(=O)O)C(=O)N[C@@H](CC(C)C)C(=O)N1)C(=O)N[C@@H](CC(C)C)C(N)=O [Compound K] (HELM PEPTIDE1{[O=C1OC2(c3ccc(O)cc3Oc3cc(O)ccc32)c2ccc(NC(=S)[*:2])cc21].W.F.H.C.P.Y.D.L.C.H.I.L.[am]}$PEPTIDE1,PEPTIDE1,5:R3-10:R3$$$V2.0) | 0.06 | – | –
CC[C@H](C)[C@H](NC(=O)[C@H](Cc1c[nH]cn1)NC(=O)[C@@H]1CSSC[C@H](NC(=O)[C@H](Cc2c[nH]cn2)NC(=O)[C@H](Cc2ccccc2)NC(=O)[C@H](Cc2c[nH]c3ccccc23)NC(=O)CCCCCNC(=S)Nc2ccc3c(c2)C(=O)OC32c3ccc(O)cc3Oc3cc(O)ccc32)C(=O)N2C[C@H](O)C[C@H]2C(=O)N[C@@H](Cc2ccc(O)c(I)c2)C(=O)N[C@@H](CC(=O)O)C(=O)N[C@@H](CC(C)C)C(=O)N1)C(N)=O [D] ({FITC-Ahx}-WFHC[Hyp][Tyr(3-I)]DLCHI-NH2; disulfide 4-9) | 0.061 | – | –
CC[C@H](C)[C@H](NC(=O)[C@H](Cc1c[nH]cn1)NC(=O)[C@@H]1CSSC[C@H](NC(=O)[C@H](Cc2c[nH]cn2)NC(=O)[C@H](Cc2ccccc2)NC(=O)CNC(=O)CNC(=O)CCCCCNC(=S)Nc2ccc3c(c2)C(=O)OC32c3ccc(O)cc3Oc3cc(O)ccc32)C(=O)N2C[C@H](O)C[C@H]2C(=O)N[C@@H](Cc2ccc(O)c(I)c2)C(=O)N[C@@H](CC(=O)O)C(=O)N[C@@H](CC(C)C)C(=O)N1)C(N)=O [E] ({FITC-Ahx}-GGFHC[Hyp][Tyr(3-I)]DLCHI-NH2; disulfide 5-10) | 0.09 | – | –
CC[C@H](C)[C@H](NC(=O)[C@H](Cc1c[nH]c2ccccc12)NC(=O)[C@@H]1CSSC[C@H](NC(=O)[C@H](CCC(=O)O)NC(=O)[C@H](Cc2c[nH]c3ccccc23)NC(=O)[C@H](CCC(N)=O)NC(=S)Nc2ccc3c(c2)C(=O)OC32c3ccc(O)cc3Oc3cc(O)ccc32)C(=O)N2CCC[C@H]2C(=O)N[C@@H](Cc2ccc(O)cc2)C(=O)NCC(=O)N[C@@H](CC(C)C)C(=O)N1)C(=O)N[C@@H](CCC(N)=O)C(N)=O [J] (HELM PEPTIDE1{[O=C1OC2(c3ccc(O)cc3Oc3cc(O)ccc32)c2ccc(NC(=S)[*:2])cc21].Q.W.E.C.P.Y.G.L.C.W.I.Q.[am]}$PEPTIDE1,PEPTIDE1,5:R3-10:R3$$$V2.0) | 0.055 | – | Kd ([1]; fluorophore derivatives of QWECPYGLCWIQ, no unit in Table 6, read-out: Kd): 0.06 µM
CC(C)C[C@H](NC(=O)[C@@H]1CSSC[C@H](NC(=O)[C@@H]2CCCN2C(=O)[C@@H](N)CC(C)C)C(=O)N[C@@H](CC(=O)O)C(=O)N[C@@H](Cc2ccc(O)cc2)C(=O)N[C@@H](Cc2ccc(O)cc2)C(=O)NCC(=O)N[C@@H](C(C)O)C(=O)N1)C(=O)N[C@@H](CC(=O)O)C(N)=O (stereo partly shown) [Structure 1] | – | – | half-life at 100 µM [2]: < 2 min
C=NOCC(=O)NCCN(CCN(CCNC(=O)CO/N=C/C(=O)N[C@@H](CC(C)C)C(=O)N1CCC[C@H]1C(=O)N[C@H]1CSSC[C@@H](C(=O)N[C@@H](Cc2ccc(-c3ccccc3)cc2)C(=O)N[C@@H](CC(=O)O)C(N)=O)NC(=O)[C@H]([C@@H](C)O)NC(=O)CNC(=O)[C@H](Cc2ccc(O)cc2)NC(=O)[C@H](Cc2ccc(O)cc2)NC(=O)[C@H](CC(=O)O)NC1=O)C(=O)C(CNC(=O)CN(CCN(CCN(CC(=O)O)CC(=O)O)CC(=O)O)CC(=O)O)NC(=O)CN(CCN(CCN(CC(=O)O)CC(=O)O)CC(=O)O)CC(=O)O)C(=O)C(CNC(=O)CN(CCN(CCN(CC(=O)O)CC(=O)O)CC(=O)O)CC(=O)O)NC(=O)CN(CCN(CCN(CC(=O)O)CC(=O)O)CC(=O)O)CC(=O)O (stereo partly shown) [Structure 2] | – | 10 | –
CC(C)C[C@H](NC(=O)[C@@H]1CSSC[C@H](NC(=O)[C@@H]2CCCN2C(=O)[C@H](CC(C)C)NC(=O)c2ccc(-c3ccccc3)cc2)C(=O)N[C@@H](CC(=O)O)C(=O)N[C@@H](Cc2ccc(O)cc2)C(=O)N[C@@H](Cc2ccc(O)cc2)C(=O)NCC(=O)N[C@@H]([C@@H](C)O)C(=O)N1)C(=O)N[C@@H](CC(=O)O)C(=O)NCCN(CCN(CCN)C(=O)C(CNC(=O)CN(CCN(CCN(CC(=O)O)CC(=O)O)CC(=O)O)CC(=O)O)NC(=O)CN(CCN(CCN(CC(=O)O)CC(=O)O)CC(=O)O)CC(=O)O)C(=O)C(CNC(=O)CN(CCN(CCN(CC(=O)O)CC(=O)O)CC(=O)O)CC(=O)O)NC(=O)CN(CCN(CCN(CC(=O)O)CC(=O)O)CC(=O)O)CC(=O)O (stereo partly shown) [Structure 3] | – | 9 | –

Reference: patent US7927581B2, “Peptide-based multimeric targeted contrast agents” (Factor 1A, LLC, priority 2001, dated 2011)
